Test results as given in US11878015B2, “Piperidine-substituted Mnk inhibitors and methods related thereto” (eFFECTOR Therapeutics Inc., priority 2017, dated 2024).
Like-named read-outs stand apart in the source and are kept apart here.

Tests used:
[1] = tested on: Phosphorylated eIF4E; assay: peIF4E signaling cellular assay (CisBio peIF4E HTRF); assay type: cell-based; settings: 2 hrs incubation at 37° C., 12-point curve 20 μM to 0.1 nM; read-out: pEI4IE signaling activity
Method: Phosphorylated eIF4E is assayed using the CisBio peIF4E HTRF® assay kit (CisBio, catalogue No. 64EF4PEG). Cells are plated in 96-well tissue-culture treated plate in appropriate growth medium (90 μL). Compounds (10×) are diluted using 3-fold serial dilutions in cell culture medium and added to cells. Plates are incubated for 2 hrs at 37° C. The cell supernatant is carefully removed either by aspirating supernatant or by flicking the plate. Immediately 50 μL of supplemented lysis buffer (1×) is added and incubated for at least 30 minutes at room temperature under shaking. After homogenization by pipeting up and down, 16 μL of cell lysate is transferred from the 96-well cell-culture plate to a 384-well small volume white plate. 4 μL of premixed antibody solutions (vol/vol) is prepared in the detection buffer and added. The plate is covered with a plate sealer and incubated overnight at room temperature. The fluorescence emissions at two different wavelengths are read (665 nm and 620 nm) on a Wallac Victor2. Emission ratios are converted into percent inhibitions and imported into GraphPad Prism software. […] IC50 values are determined using a nonlinear regression model available in GraphPad Prism 5.
To this end, IC50 values of less than 0.001 μM are labelled as “+++”, from 0.001 to 0.01 μM are labelled as “++”, and greater than 0.01 μM are labelled as “+” (NA means “not available”).

[2] = tested on: PD-1; assay: PD-1 (CD279) expression on PHA/PMA-activated Jurkat T cells, flow cytometry; assay type: cell-based; settings: Homo sapiens, percentage of inhibition of PD-1 positive cells at 10 μM, 48 hours
Method: To examine the effect of MNK inhibitors on PD-1 expression, Jurkat cells (Clone E6.1, ATCC, transformed T cells) were used, which express PD-1 when activated through T cell receptor (TCR) signaling. Briefly, Jurkat cells were grown in 1×RPMI with 1×Pen/Strep, and 10% FBS, then about 3×10^6 Jurkat cells were activated in presence of 1 μg/mL PHA (Sigma) and 50 ng/mL PMA (Sigma). Test Cells were treated simultaneously with various concentrations of an MNK inhibitor (0, 0.01, 0.1, 1, 3 and 10 μM). After 48 hours, culture supernatants were harvested and examined via sandwich ELISA for the presence of IL-2 using human IL-2 ELISA DuoSet (R&D Systems, Minneapolis, Minn.). The level of PD-1 on Jurkat cells was examined by incubating with human FcR block, then contacted with allophycocyanin (APC) conjugated anti-PD-1 antibody (5 μl per 100 μl volume of test, Biolegend, San Diego, CA) for 25 minutes at 4° C., without washing the cells, fixable dead cell stain (1:10,000; BD Biosciences, San Jose, CA) was added and incubated further for 10 minutes at 4° C. Cells were washed two times with flow buffer, and finally cells were fixed with fixation buffer for 15 minutes at 4° C. After fixation, cells were washed twice with flow buffer and re-suspended in flow buffer and assessed for fluorescence using BD Accuri C6 flow cytometer. Data were analyzed using the C6 cytometer software (BD Biosciences, San Jose, CA) or Attune Nxt Cytometer (Invitrogen, Carlsbad, CA).
Activation of Jurkat T cells with PHA and PMA induced the expression of PD-1 on the cell surface of about 25-30% of the stimulated Jurkat cells as compared to uninduced cells (Unstim) and induced a 1,000-fold increase in IL-2 cytokine production, respectively. […] Lastly, MNK inhibition by various different MNK inhibitors had no effect on cell viability. […] To this end, percentage of inhibition of PD-1 positive cells (10 μM) of more than 50% are labelled as “+++”, from 10% to 50% are labelled as “++”, and less than 10% are labelled as “+” (NA means “not available”).

[3] = High throughput thermodynamic solubility procedure; assay type: physicochemical; settings: for solubility in fasted state simulated gastric fluid (FaSSGF), in words: pH value of 1.6
Method: In a 96-well plate, 10 mM DMSO stocks (50-100 uL) of each compound were dried under heated nitrogen flow using a SPE-96 plate dryer (upper flow rate=50 L/min, temperature=60° C., lower flow rate=20 L/min, temperature=80° C.). […] Compounds prepared as the free base were assessed in conditions with and without one equivalent of TFA added. The theoretical maximum concentrations of the aqueous solutions were 10 mM. Each well was capped and incubated for a period of 18 hours at room temperature or 37° C. Mixing of the solutions during the incubation period was performed by either shaking the plate at 750 rpm or adding StirStix (stainless steel capillaries) and agitating the mixture using a rotary magnetic tumble stirrer. After the incubation period, aliquots from each well were filtered. Solubility of all samples were quantified following comparison to standards of known concentration by HPLC-UV.

[4] = Fasted-State Simulated Intestinal Fluid (FaSSIF), pH 6.5, fassif, thermodynamic from solid, Fasted-State Simulated Intestinal Fluid, 18 hours incubation, theoretical maximum 10 mM, read-out: Aqueous Solubility FaSSIF (pH 6.5)
[5] = thermodynamic from solid, deionized water, 18 hours incubation, theoretical maximum 10 mM, read-out: Aqueous Solubility DI H2O

Compound	IC50 [1] [nM]	inhibition at 10 µM [2] [%]	solubility in fasted state simulated gastric fluid (FaSSGF), in words [3]	solubility at 18 h [3, 4]	solubility at 18 h [3, 5]	solubility in DI water at 18 h ([3]; thermodynamic from solid, deionized water, 18 hours incubation, theoretical maximum 10 mM) [µM]
Cc1cc(Nc2ncnc(N)c2C)c(=O)n2c1C(=O)N[C@]21CCCN(C)C1 (stereo in doubt) [Compound 1Fa, (R)-6-((6-amino-5-methylpyrimidin-4-yl)amino)-1′,8-dimethyl-2H-spiro[imidazo[1,5-a]pyridine-3,3′-piperidine]-1,5-dione]	> 10	10 to 50	excellent solubility	125 µg/mL	> 1850 µg/mL	–
Cc1cc(Nc2ncnc(N)c2Cl)c(=O)n2c1C(=O)NC21CCCNC1 (stereo not shown) [Compound 3C]	1 to 10	> 50	–	256 µM	2600 µM	–
Cc1cc(Nc2ncnc(N)c2C)c(=O)n2c1C(=O)NC21CCN(CCC(F)(F)F)CC1 [Compound 3AA]	1 to 10	< 10	–	30 µM	4400 µM	–
Cc1cc(Nc2ncnc(N)c2Cl)c(=O)n2c1C(=O)NC21CCCCC1.Cl [Compound 4A, 6′-((6-amino-5-chloropyrimidin-4-yl)amino)-8′-methyl-2′H-spiro[cyclohexane-1,3′-imidazo[1,5-a]pyridine]-1′,5′-dione Hydrochloride, reference compound]	–	> 50	–	45 µM	–	300
Cc1cc(Nc2ncnc(N)c2Cl)c(=O)n2c1C(=O)N[C@]21CCCNC1 [Compound 3K]	> 10	> 50	excellent solubility	158 µg/mL	1530 µg/mL	–
Cc1cc(Nc2ncnc(N)c2Cl)c(=O)n2c1C(=O)NC21CCN(C)C(C)(C)C1 (stereo not shown) [Compound 3FF]	< 1	10 to 50	–	–	–	–
Cc1cc(Nc2ncnc(N)c2C)c(=O)n2c1C(=O)NC21CCCN(C(C)(C)C)C1 (stereo not shown) [Compound 3V]	> 10	–	–	107 µg/mL	–	–
Cc1cc(Nc2ncnc(N)c2C)c(=O)n2c1C(=O)NC21CCCN(CCC(F)(F)F)C1 (stereo not shown) [Compound 3E]	> 10	–	–	–	–	–
Cc1cc(Nc2ncnc(N)c2Cl)c(=O)n2c1C(=O)NC21CCCN(C(C)(C)C)C1 (stereo not shown) [Compound 3W]	1 to 10	–	–	593 µg/mL	–	–
Cc1cc(Nc2ncnc(N)c2Cl)c(=O)n2c1C(=O)NC21CCN(C)CC1(C)C (stereo not shown) [Compound 3DD]	< 1	> 50	–	130 µM	2100 µM	–
CCN1CCCC2(C1)NC(=O)c1c(C)cc(Nc3ncnc(N)c3C)c(=O)n12 (stereo not shown) [Compound 3N]	1 to 10	–	–	–	–	–
Cc1cc(Nc2ncnc(N)c2C)c(=O)n2c1C(=O)NC21CCCN(CC2CC2)C1 (stereo not shown) [Compound 3H]	> 10	–	–	–	–	–
Cc1cc(Nc2ncnc(N)c2C#N)c(=O)n2c1C(=O)N[C@@]21CCCN(C)C1 (single isomer, unassigned) [Compound 2Fb]	> 10	10 to 50	excellent solubility	151 µg/mL	1770 µg/mL	–
Cc1cc(Nc2ncnc(N)c2Cl)c(=O)n2c1C(=O)NC21CCCN(CCC(F)(F)F)C1 (stereo not shown) [Compound 3F]	1 to 10	–	–	–	240 µM	–
Cc1cc(Nc2ncnc(N)c2C#N)c(=O)n2c1C(=O)NC21CCCNC1 (stereo not shown) [Compound 3U]	> 10	–	–	–	–	–
Cc1cc(Nc2ncnc(N)c2C)c(=O)n2c1C(=O)NC21CCN(CC(C)(C)F)CC1 [Compound 3GG]	1 to 10	–	–	–	–	–

Compound	IC50 [1] [nM]	inhibition at 10 µM [2] [%]	solubility in fasted state simulated gastric fluid (FaSSGF), in words [3]	solubility at 18 h [3, 4]	solubility at 18 h [3, 5]	solubility in DI water at 18 h ([3]; thermodynamic from solid, deionized water, 18 hours incubation, theoretical maximum 10 mM) [µM]
Cc1cc(Nc2ncnc(N)c2C#N)c(=O)n2c1C(=O)N[C@]21CCCN(C)C1 (single isomer, unassigned) [Compound 2Fa]	1 to 10	10 to 50	excellent solubility	77 µg/mL	1840 µg/mL	–
Cc1cc(Nc2ncnc(N)c2Cl)c(=O)n2c1C(=O)N[C@@]21CCCN(C)C1 [Compound 3X]	< 1	–	excellent solubility	–	–	–
Cc1cc(Nc2ncnc(N)c2Cl)c(=O)n2c1C(=O)NC21CCCN(CC2CC2)C1 (stereo not shown) [Compound 3J]	1 to 10	–	–	–	–	–
Cc1cc(Nc2ncnc(N)c2Cl)c(=O)n2c1C(=O)NC21CCCN2CCCC21 (stereo not shown) [Compound 3P]	< 1	–	–	–	–	–
Cc1cc(Nc2ncnc(N)c2Cl)c(=O)n2c1C(=O)N[C@]21CCCN(C)C1 [Compound 3Y]	< 1	–	excellent solubility	–	–	–
Cc1cc(Nc2ncnc(N)c2C)c(=O)n2c1C(=O)NC21CCCNC1 (stereo not shown) [Compound 3B]	> 10	–	–	–	–	–
Cc1cc(Nc2ncnc(N)c2Cl)c(=O)n2c1C(=O)NC21CCN(CCC(F)(F)F)CC1 [Compound 3BB]	< 1	< 10	–	–	–	–
Cc1cc(Nc2ncnc(N)c2Cl)c(=O)n2c1C(=O)NC21CCCN(C)C1 (stereo not shown) [Compound 3D]	1 to 10	–	excellent solubility	110 µM	3300 µM	–
Cc1cc(Nc2ncnc(N)c2C)c(=O)n2c1C(=O)NC21CCCN2CCCC21 (stereo not shown) [Compound 3O]	< 1	–	–	–	–	–
Cc1cc(Nc2ncnc(N)c2Cl)c(=O)n2c1C(=O)NC21CC(C)N(C)C(C)C1 (stereo not shown) [Compound 3EE]	1 to 10	> 50	–	–	–	–
Cc1cc(Nc2ncnc(N)c2Cl)c(=O)n2c1C(=O)NC21CCCN(C(C)C)C1 (stereo not shown) [Compound 3R]	< 1	–	–	68 µg/mL	–	–
Cc1cc(Nc2ncnc(N)c2Cl)c(=O)n2c1C(=O)NC21CCN(C2CC2)CC1 [Compound 3Z]	1 to 10	–	–	–	–	–
Cc1cc(Nc2ncnc(N)c2C)c(=O)n2c1C(=O)NC21CCCN(C(C)C)C1 (stereo not shown) [Compound 3Q]	1 to 10	–	–	–	–	–
Cc1cc(Nc2ncnc(N)c2C)c(=O)n2c1C(=O)NC21CCCN(CC(F)F)C1 (stereo not shown) [Compound 3G]	1 to 10	–	–	–	–	–
Cc1cc(Nc2ncnc(N)c2Cl)c(=O)n2c1C(=O)NC21CCCN(CC(F)F)C1 (stereo not shown) [Compound 3I]	< 1	–	–	–	–	–
